Results: the supplement of paper PMC10307832

Key:
Experiment in all cases: relative viability (nuclei count vs DMSO), 5 days (fraction); higher = more cells survive
AZD8055 + Dasatinib = compound: COc1ccc(-c2ccc3c(N4CCOC[C@@H]4C)nc(N4CCOC[C@@H]4C)nc3n2)cc1CO [AZD8055] + Cc1nc(Nc2ncc(C(=O)Nc3c(C)cccc3Cl)s2)cc(N2CCN(CCO)CC2)n1 [Dasatinib] (partner 0.075 µM)
In short: (§1)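 Relative viability divides the nuclei count in treated wells by that in vehicle wells. Lung cancer cell lines were seeded in 1536-well plates, dosed by pin tool the next day, and fixed and stained after 5 days in one step with final 0.05% Triton X-100, 1% formaldehyde and 1 ug/ml Hoechst. Dosing was a single drug or a fixed anchor-drug dose plus five library-drug doses (not always all listed) in √10 steps, and values are medians of duplicate plates imaged at 4×.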

AZD8055 + Pemetrexed = compound: COc1ccc(-c2ccc3c(N4CCOC[C@@H]4C)nc(N4CCOC[C@@H]4C)nc3n2)cc1CO [AZD8055] + Nc1nc2[nH]cc(CCc3ccc(C(=O)N[C@@H](CCC(=O)O)C(=O)O)cc3)c2c(=O)[nH]1 [Pemetrexed] (partner 0.2 µM)
In short: as §1

AZD8055 + Crizotinib = compound: COc1ccc(-c2ccc3c(N4CCOC[C@@H]4C)nc(N4CCOC[C@@H]4C)nc3n2)cc1CO [AZD8055] + C[C@@H](Oc1cc(-c2cnn(C3CCNCC3)c2)cnc1N)c1c(Cl)ccc(F)c1Cl [Crizotinib] (partner 1 µM)
In short: as §1

AZD8055 + Lapatinib = compound: COc1ccc(-c2ccc3c(N4CCOC[C@@H]4C)nc(N4CCOC[C@@H]4C)nc3n2)cc1CO [AZD8055] + CS(=O)(=O)CCNCc1ccc(-c2ccc3ncnc(Nc4ccc(OCc5cccc(F)c5)c(Cl)c4)c3c2)o1 [Lapatinib] (partner 2 µM)
In short: as §1

Cell Line	relative viability (AZD8055 + Dasatinib; first compound 0.01 µM)	relative viability (AZD8055 + Dasatinib; first compound 0.03162 µM)	relative viability (AZD8055 + Dasatinib; first compound 0.1 µM)	relative viability (AZD8055 + Dasatinib; first compound 0.3162 µM)	relative viability (AZD8055 + Dasatinib; first compound 1 µM)	relative viability (AZD8055 + Pemetrexed; first compound 0.01 µM)	relative viability (AZD8055 + Pemetrexed; first compound 0.03162 µM)	relative viability (AZD8055 + Pemetrexed; first compound 0.1 µM)	relative viability (AZD8055 + Pemetrexed; first compound 0.3162 µM)	relative viability (AZD8055 + Pemetrexed; first compound 1 µM)	relative viability (AZD8055 + Crizotinib; first compound 0.01 µM)	relative viability (AZD8055 + Crizotinib; first compound 0.03162 µM)	relative viability (AZD8055 + Crizotinib; first compound 0.1 µM)	relative viability (AZD8055 + Crizotinib; first compound 0.3162 µM)	relative viability (AZD8055 + Crizotinib; first compound 1 µM)	relative viability (AZD8055 + Lapatinib; first compound 0.01 µM)	relative viability (AZD8055 + Lapatinib; first compound 0.03162 µM)	relative viability (AZD8055 + Lapatinib; first compound 0.1 µM)	relative viability (AZD8055 + Lapatinib; first compound 0.3162 µM)	relative viability (AZD8055 + Lapatinib; first compound 1 µM)
NCI-H1563	0.458	0.458	0.443	0.405	0.384	0.735	0.577	0.602	0.563	0.471	0.769	0.81	0.697	0.6	0.679	0.881	0.836	0.756	0.644	0.751
HCC-827	0.334	0.273	0.258	0.241	0.167	0.278	0.242	0.239	0.275	0.216	1	0.965	0.991	0.479	0.393	0.212	0.201	0.193	0.141	0.21
NCI-H2228	0.429	0.358	0.136	0.144	0.171	0.41	0.345	0.233	0.171	0.171	0.39	0.229	0.286	0.173	0.302	1.01	0.709	0.338	0.219	0.261
NCI-H2170	0.557	0.558	0.333	0.205	0.197	0.287	0.288	0.255	0.24	0.248	1.2	1.07	0.641	0.394	0.376	0.242	0.231	0.229	0.231	0.228
EMC-BAC-2	0.32	0.25	0.234	0.186	0.186	0.501	0.465	0.474	0.396	0.316	0.764	0.706	0.612	0.337	0.344	0.867	0.777	0.74	0.403	0.406
NCI-H23	0.874	0.732	0.572	0.276	0.27	0.503	0.635	0.542	0.326	0.354	0.562	0.507	0.41	0.295	0.265	1.15	0.804	0.792	0.369	0.35
RERF-LC-KJ	0.946	0.753	0.607	0.284	0.343	0.51	0.499	0.428	0.396	0.373	0.863	0.974	0.756	0.578	0.452	0.895	0.726	0.637	0.437	0.345
NCI-H358	0.169	0.173	0.0957	0.0735	0.0998	0.184	0.176	0.158	0.145	0.129	0.678	0.934	0.69	0.442	0.211	0.444	0.41	0.394	0.254	0.246
LC-2-ad	0.559	0.683	0.451	0.221	0.321	0.281	0.277	0.307	0.289	0.278	0.429	0.502	0.473	0.384	0.312	1.1	0.987	0.924	0.683	0.456
HCC-15	0.615	0.541	0.477	0.273	0.174	0.241	0.236	0.209	0.238	0.241	0.816	0.788	0.746	0.529	0.334	0.834	0.877	0.886	0.474	0.333
NCI-H2405	0.225	0.204	0.215	0.188	0.183	1.06	0.987	0.803	0.34	0.342	0.804	0.815	0.681	0.516	0.311	1.03	0.955	0.858	0.395	0.292
LXF-289	0.191	0.222	0.192	0.118	0.109	1.11	0.996	0.935	0.765	0.651	0.902	0.855	0.807	0.702	0.686	0.939	0.903	0.846	0.804	0.708
CAL-12T	0.536	0.388	0.34	0.136	0.12	1.02	0.891	0.918	0.424	0.296	0.557	0.607	0.521	0.308	0.165	0.67	0.601	0.369	0.37	0.343
COR-L23	0.581	0.44	0.309	0.137	0.164	0.204	0.194	0.186	0.177	0.178	0.585	0.738	0.55	0.271	0.169	1.36	0.804	0.741	0.33	0.219
NCI-H1755	0.414	0.32	0.262	0.263	0.249	0.462	0.423	0.384	0.424	0.461	0.824	0.762	0.652	0.397	0.393	1.07	0.815	0.935	0.565	0.457
NCI-H1437	0.498	0.444	0.275	0.187	0.124	0.324	0.308	0.276	0.23	0.224	0.946	0.963	0.899	0.337	0.19	1.03	0.76	0.549	0.221	0.183
NCI-H2085	0.205	0.201	0.199	0.217	0.195	0.827	0.74	0.481	0.31	0.268	0.927	0.805	0.639	0.359	0.315	0.899	0.514	0.384	0.334	0.341
H3255	0.364	0.429	0.3	0.323	0.306	0.636	0.562	0.487	0.443	0.364	1.3	0.818	0.718	0.407	0.301	0.228	0.209	0.227	0.212	0.229
NCI-H650	0.469	0.393	0.36	0.292	0.231	0.981	0.691	0.843	0.371	0.299	0.763	0.712	0.626	0.395	0.292	0.838	0.73	0.58	0.341	0.319
LOU-NH91	0.545	0.6	0.415	0.431	0.406	0.466	0.433	0.5	0.507	0.469	0.71	0.713	0.673	0.592	0.531	0.68	0.679	0.56	0.484	0.548
NCI-H1650	0.317	0.302	0.292	0.19	0.265	0.403	0.463	0.389	0.39	0.29	0.919	1.24	1.02	0.518	0.43	0.767	0.731	0.71	0.452	0.44
NCI-H3122	0.653	0.684	0.783	0.223	0.292	0.229	0.228	0.231	0.227	0.225	0.248	0.238	0.183	0.174	0.171	1.09	1.14	1.04	0.79	0.589
PC-3 [JPC-3]	1.01	0.937	0.946	0.641	0.444	1.17	1.09	0.877	0.622	0.454	1.06	1.05	1.01	0.712	0.53	0.392	0.393	0.333	0.322	0.302
NCI-H1651	0.455	0.368	0.307	0.226	0.253	0.645	0.585	0.477	0.388	0.367	0.896	0.738	0.786	0.633	0.529	0.844	0.569	0.585	0.403	0.324
NCI-H2087	0.957	0.637	0.792	0.292	0.216	0.646	0.587	0.588	0.427	0.292	1.21	0.972	0.801	0.415	0.485	1.01	0.932	0.826	0.581	0.435
